As a reminder, the Ki is the dissociation constant of the complex between target and ligand, obtained from inhibition or displacement. Read a high Ki as weaker binding. As usually defined, the inhibition is the percentage by which the read-out fell short of the control. The term IC50 denotes the concentration needed to halve the response being measured.

The target in one experiment is T1, Adenosine receptor A1 (Homo sapiens, UniProt P30542).
T1 sequence (P30542 whole entry): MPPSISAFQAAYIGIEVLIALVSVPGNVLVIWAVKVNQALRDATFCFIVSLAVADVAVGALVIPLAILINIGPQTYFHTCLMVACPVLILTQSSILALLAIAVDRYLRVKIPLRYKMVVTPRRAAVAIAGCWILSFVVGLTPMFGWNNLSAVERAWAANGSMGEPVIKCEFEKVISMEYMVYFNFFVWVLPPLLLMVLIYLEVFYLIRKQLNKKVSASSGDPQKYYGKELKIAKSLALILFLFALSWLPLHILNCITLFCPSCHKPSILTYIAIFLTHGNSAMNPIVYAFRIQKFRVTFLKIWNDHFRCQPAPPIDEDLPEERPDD
Put plainly: Displacement of [3H]DPCPX at human A1 receptor expressed in CHO cell membrane after 120 mins by scintillation counting method. In kind it is cell membranes.

In a further experiment the target is Adenosine receptor A2a (Homo sapiens, UniProt P29274). Nature of the experiment: Displacement of [3H]ZM241385 at human A2A receptor expressed in CHO cell membrane at 1 uM after 60 mins by scintillation counting method. In kind it is cell membranes. On the technique in general: Loss of bound radioactivity is the signal in a displacement assay; it reports binding, not function.
Chain of Adenosine receptor A2a (P29274 whole entry): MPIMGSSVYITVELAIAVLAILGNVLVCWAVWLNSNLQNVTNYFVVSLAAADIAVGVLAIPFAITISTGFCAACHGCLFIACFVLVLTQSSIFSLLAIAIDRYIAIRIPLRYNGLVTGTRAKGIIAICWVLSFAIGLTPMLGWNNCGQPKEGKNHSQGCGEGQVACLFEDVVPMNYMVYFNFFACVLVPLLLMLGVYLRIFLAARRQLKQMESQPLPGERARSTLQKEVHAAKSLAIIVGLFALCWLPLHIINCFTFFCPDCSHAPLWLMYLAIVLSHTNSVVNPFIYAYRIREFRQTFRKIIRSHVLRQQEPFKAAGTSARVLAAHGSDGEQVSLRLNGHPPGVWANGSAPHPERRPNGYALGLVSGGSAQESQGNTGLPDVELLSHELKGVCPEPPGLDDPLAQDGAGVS

The target of experiment [1] is T2, Adenosine receptor A3 (Homo sapiens, UniProt P0DMS8).
T2 sequence (P0DMS8 whole entry): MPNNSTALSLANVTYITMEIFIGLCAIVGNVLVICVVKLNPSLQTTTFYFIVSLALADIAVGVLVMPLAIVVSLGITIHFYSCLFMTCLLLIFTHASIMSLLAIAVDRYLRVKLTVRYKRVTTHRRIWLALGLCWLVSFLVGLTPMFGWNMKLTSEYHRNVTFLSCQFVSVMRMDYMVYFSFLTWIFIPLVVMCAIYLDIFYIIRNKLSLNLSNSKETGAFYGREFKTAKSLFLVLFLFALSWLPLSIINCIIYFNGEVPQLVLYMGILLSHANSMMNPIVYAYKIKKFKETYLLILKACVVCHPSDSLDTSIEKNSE
Put plainly: Displacement of [125I]AB-MECA at human […] receptor expressed in CHO cell membrane after 60 mins by scintillation counting method. In kind it is cell membranes.

Experiment [2] concerns the target T3, Adenosine receptor A2b (Homo sapiens) (UniProt P29275).
T3 sequence (whole entry): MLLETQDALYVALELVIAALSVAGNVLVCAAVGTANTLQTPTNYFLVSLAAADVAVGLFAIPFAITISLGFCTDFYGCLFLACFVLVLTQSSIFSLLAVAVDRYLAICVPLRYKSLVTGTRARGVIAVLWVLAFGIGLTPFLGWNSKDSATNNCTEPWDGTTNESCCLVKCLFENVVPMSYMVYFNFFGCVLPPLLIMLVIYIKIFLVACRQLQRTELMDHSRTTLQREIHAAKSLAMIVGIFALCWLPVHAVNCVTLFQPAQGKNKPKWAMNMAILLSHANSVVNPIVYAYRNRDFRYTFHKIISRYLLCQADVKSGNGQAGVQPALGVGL
Put plainly: Antagonist activity at human A2B receptor expressed in CHO cells assessed as inhibition of NECA-stimulated cAMP production at 1 uM by scintillation counting method. In kind it is functional, cell-based.

In experiment [3] the target is T2, Adenosine receptor A3. Nature of the experiment: Antagonist activity at human A3 receptor expressed in CHO cells assessed as inhibition of Cl-IB-MECA-induced cAMP production by scintillation counting method. In kind it is functional, cell-based. For orientation: Changes in cAMP serve as a functional read-out for many G protein-coupled receptors.
In experiment [4] the target is T4, Adenosine receptor A1 (Homo sapiens) (UniProt P30542).
T4 sequence (whole entry): T1 sequence (P30542 whole entry)
Nature of the experiment: Displacement of [3H]DPCPX at human A1 receptor expressed in CHO cell membrane at 1 uM after 120 mins by scintillation counting method. In kind it is cell membranes.

Experiment [5] deals with T5, Adenosine receptor A3 (Rattus norvegicus, UniProt P28647).
T5 sequence (P28647 whole entry): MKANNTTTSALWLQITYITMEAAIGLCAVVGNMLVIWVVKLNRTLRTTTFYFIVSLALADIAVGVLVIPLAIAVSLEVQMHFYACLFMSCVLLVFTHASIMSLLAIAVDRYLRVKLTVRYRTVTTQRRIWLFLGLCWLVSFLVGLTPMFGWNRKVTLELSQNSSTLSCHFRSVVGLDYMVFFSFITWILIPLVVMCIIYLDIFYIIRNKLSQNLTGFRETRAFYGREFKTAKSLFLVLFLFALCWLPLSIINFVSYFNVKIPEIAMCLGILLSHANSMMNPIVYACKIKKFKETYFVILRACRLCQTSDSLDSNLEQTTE
Nature of the experiment: Displacement of [125I]AB-MECA at rat A3 receptor expressed in HEK293 cells after 60 mins by scintillation counting method. In kind it is cell-based.

The target in experiment [6] is T6, Adenosine receptor A3 (Homo sapiens) (UniProt P0DMS8).
T6 sequence (whole entry): T2 sequence (P0DMS8 whole entry)
Put plainly: Displacement of [125I]AB-MECA at human […] receptor expressed in CHO cell membrane at 1 uM after 60 mins by scintillation counting method. In kind it is cell membranes.

As to `O=C(Nc1nc(-c2cccs2)nc2cn(-c3ccccc3)nc12)c1cccnc1`, the Ki on Adenosine receptor A1 is 764 nM; on Adenosine receptor A3 [1], 0.41 nM. Moreover, the figures for the inhibition (on Adenosine receptor A2a; in experiment [2]) were 3% and 1%, respectively. Besides, the IC50 at Adenosine receptor A3 [3] is 1.01 nM.
As for `O=C(Nc1nc(-c2cccs2)nc2cn(-c3ccccc3)nc12)c1ccncc1`, the figures for the inhibition (in experiment [4]; on Adenosine receptor A2a; in experiment [2]) were 20%, 1% and 1%, respectively. The Ki on Adenosine receptor A3 [1] is 9.54 nM; on Adenosine receptor A3 [5], greater than 10000 nM. Further, at Adenosine receptor A3 [3], the IC50 was found to be 37 nM.
On to `Cn1cc2nc(-c3ccccc3)nc(N)c2n1`, for which the inhibition in experiment [4] was 31%; at Adenosine receptor A2a, 1%; in experiment [6], 1%; in experiment [2], 1%.
The compound `Cc1nc(N)c2nn(-c3ccccc3)nc2n1` registered a Ki on Adenosine receptor A1 of 213 nM. The inhibition at Adenosine receptor A2a was found to be 6%; in experiment [6], 1%; in experiment [2], 1%.
As for `Cc1nc2nn(-c3ccccc3)nc2c(=O)[nH]1`, the inhibition came out at 32% in experiment [4], 14% at Adenosine receptor A2a and 1% in experiment [2]. At Adenosine receptor A3 [1], the affinity corresponds to a Ki of 321 nM.
Take `Cc1nc2cn(C)nc2c(=O)[nH]1`: the inhibition (in experiment [4]; at Adenosine receptor A2a; in experiment [6]; in experiment [2]) was 1% in each case.
Turning to `O=c1[nH]c(-c2ccccc2)nc2cn(Cc3ccccc3)nc12`, the inhibition in experiment [4] came out at 6%; on Adenosine receptor A2a it was 1%; in experiment [2], 1%. The compound further gave a Ki on Adenosine receptor A3 [1] of 130 nM.
As for `O=C(Cc1ccccc1)Nc1nc(-c2ccccc2)nc2cn(Cc3ccccc3)nc12`, the inhibition in experiment [4] worked out at 7%; at Adenosine receptor A2a, 9%; in experiment [2], 1%. Besides, on Adenosine receptor A3 [1], the Ki worked out at 202 nM.
`O=C(Cc1ccccc1)Nc1nc(-c2cccs2)nc2cn(-c3ccccc3)nc12`: the inhibition in experiment [4] came to 32%; on Adenosine receptor A2a it was 1%; in experiment [2] it was 1%. The compound also came in with a Ki at Adenosine receptor A3 [1] of 3.53 nM. On Adenosine receptor A3 [3], the IC50 amounted to 8.45 nM.
Consider `COc1ccc(-n2cc3nc(-c4cccs4)nc(N)c3n2)cc1`, for which the figures for the inhibition (in experiment [4]; on Adenosine receptor A2a; in experiment [2]) were 28%, 35% and 31%, respectively. This compound came in with a Ki at Adenosine receptor A3 [1] of 78 nM.
Regarding `Cc1nc2cn(-c3ccccc3F)nc2c(=O)[nH]1`, the inhibition (in experiment [4]; on Adenosine receptor A2a; in experiment [2]) was 1% throughout. In addition, the affinity on Adenosine receptor A3 [1], expressed as Ki, was 225 nM.
As to `Nc1nc(Cc2cccs2)nc2cn(-c3ccccc3)nc12`, the Ki was 400 nM on Adenosine receptor A1 and 250 nM at Adenosine receptor A3 [1]. The values for the inhibition (at Adenosine receptor A2a; in experiment [2]) were 35% and 1%, respectively.
Turning to `Cc1ccc(-c2nc3cn(-c4ccccc4)nc3c(=O)[nH]2)o1`, the inhibition in experiment [4] stood at 1%; on Adenosine receptor A2a, 15%; in experiment [2], 1%. The Ki at Adenosine receptor A3 [1] worked out at 868 nM.
As to `O=C(Nc1nc(-c2cccs2)nc2cn(-c3ccccc3)nc12)c1ccccc1`, the inhibition (in experiment [4]; at Adenosine receptor A2a; in experiment [2]) was 1% in each case. Besides, the Ki on Adenosine receptor A3 [1] was 2.12 nM; on Adenosine receptor A3 [5], greater than 10000 nM. In addition, the IC50 on Adenosine receptor A3 [3] amounted to 5.32 nM.
As to `O=C(Nc1nc(-c2cccs2)nc2cn(-c3ccccc3)nc12)c1cccs1`, the Ki is 466 nM on Adenosine receptor A1 and 2.43 nM at Adenosine receptor A3 [1]. Moreover, the inhibition at Adenosine receptor A2a was determined as 7%; in experiment [2], 1%. Besides, on Adenosine receptor A3 [3], the IC50 stood at 5.59 nM.
Take `COc1ccc(-c2nc(N)c3nn(-c4ccc(OC)cc4)cc3n2)cc1`: the inhibition was found to be 1% in experiment [4], 3% on Adenosine receptor A2a and 1% in experiment [2]. At Adenosine receptor A3 [1], this compound returned a Ki of 17 nM.
For `Nc1nc(-c2ccccc2)nc2nn(-c3ccccc3)nc12`, the inhibition in experiment [4] was found to be 38%; on Adenosine receptor A2a, 3%; in experiment [6], 1%; in experiment [2], 1%.
For the compound `O=c1[nH]c(-c2ccco2)nc2cn(-c3ccccc3)nc12`, the inhibition was determined as 1% in experiment [4], 12% on Adenosine receptor A2a, 30% in experiment [6] and 1% in experiment [2].
With `COc1ccc(-c2nc(N)c3nn(-c4ccccc4)cc3n2)cc1`, the inhibition amounted to 33% in experiment [4], 1% on Adenosine receptor A2a and 2% in experiment [2]. For the same compound, the Ki at Adenosine receptor A3 [1] was 33 nM.
Regarding `O=c1[nH]c(-c2cccs2)nc2cn(-c3ccccc3)nc12`, the inhibition in experiment [4] came to 6%; on Adenosine receptor A2a it was 14%; in experiment [2], 1%. For the same compound, the affinity at Adenosine receptor A3 [1] corresponds to a Ki of 413 nM.
In the same order, the values of `O=C(Nc1nc(-c2ccccc2)nc2cn(Cc3ccccc3)nc12)c1ccccc1` are 36%, 24%, 2% and 223 nM.
Consider `Nc1nc(-c2ccc(Cl)cc2)nc2cn(-c3ccccc3)nc12`, for which the inhibition in experiment [4] was found to be 13%; on Adenosine receptor A2a it was 1%; in experiment [6], 4%; in experiment [2], 3%.
On to `Cn1cc2nc(-c3ccccc3)[nH]c(=O)c2n1`, for which the inhibition in experiment [4] is 1%; at Adenosine receptor A2a it was 1%; in experiment [6], 20%; in experiment [2] it was 1%.
For `Nc1nc(-c2ccc(O)cc2)nc2cn(-c3ccccc3)nc12`, the inhibition turned out to be 31% in experiment [4], 33% at Adenosine receptor A2a and 7% in experiment [2]. Besides, the Ki at Adenosine receptor A3 [1] was determined as 432 nM.
For `O=c1[nH]c(-c2ccccc2)nc2nn(-c3ccccc3)nc12`, the inhibition in experiment [4] was 8%; on Adenosine receptor A2a it was 11%; in experiment [6], 23%; in experiment [2] it was 1%.
Regarding `O=c1[nH]c(-c2ccccc2)nc2cn(-c3ccccc3)nc12`, the inhibition in experiment [2] was found to be 5%.
Regarding `O=C(Nc1nc(-c2ccccc2)nc2cn(-c3ccccc3)nc12)c1cccs1`, the inhibition in experiment [4] turned out to be 18%; on Adenosine receptor A2a it was 1%; in experiment [2], 1%. The compound further returned a Ki at Adenosine receptor A3 [1] of 5.87 nM. Further, the IC50 on Adenosine receptor A3 [3] is 13 nM.
`O=C(c1ccco1)N(C(=O)c1ccco1)c1nc(-c2cccs2)nc2cn(-c3ccccc3)nc12`: the Ki on Adenosine receptor A1 stood at 687 nM; on Adenosine receptor A3 [1] it was 1.82 nM. Moreover, the inhibition turned out to be 2% on Adenosine receptor A2a and 1% in experiment [2]. The IC50 on Adenosine receptor A3 [3] is 4.37 nM.
On to `COc1ccc(-c2nc3cn(C)nc3c(=O)[nH]2)cc1`, for which the inhibition in experiment [4] came out at 2%; on Adenosine receptor A2a, 1%; in experiment [6], 1%; in experiment [2] it was 1%.
As to `Cc1nc2cn(-c3ccccc3)nc2c(=O)[nH]1`, the inhibition in experiment [2] was determined as 3%.
As to `O=C(Nc1nc(-c2cccs2)nc2cn(-c3ccccc3)nc12)c1ccco1`, the Ki is 552 nM at Adenosine receptor A1 and 2.34 nM on Adenosine receptor A3 [1]. Besides, the inhibition at Adenosine receptor A2a was 21%; in experiment [2], 1%. In addition, the IC50 on Adenosine receptor A3 [3] was 5.47 nM.
Turning to `Cc1nc2cn(Cc3ccccc3)nc2c(=O)[nH]1`, the inhibition was found to be 6% in experiment [4], 1% at Adenosine receptor A2a and 1% in experiment [2]. Besides, the affinity at Adenosine receptor A3 [1], expressed as Ki, was 485 nM.
As to `COc1ccc(-n2cc3nc(-c4cccs4)[nH]c(=O)c3n2)cc1`, the inhibition in experiment [4] was 5%; on Adenosine receptor A2a, 1%; in experiment [2], 1%. The compound further had a Ki on Adenosine receptor A3 [1] of 247 nM.
